According to patent publication US10596082B2, “Oral care compositions and methods of use” (Colgate-Palmolive Company, priority 2017, dated 2020):

Test system: microorganisms
Assay: Bactericidal testing of toothpaste final base made with contaminated PCC slurry (plate count)
Conditions: final toothpaste base with previously contaminated PCC slurry, plated on MLA, 30° C.
Description: In a stainless steel bucket, water and humectant was first added and stirred using an overhead stirrer (EUROSTAR 200, IKA, North Carolina, USA) equipped with a cowles disperser. Mixing was started at 500 rpm for 1 minute. Gum and salts (buffering agents, sweetener, fluoride) were added next and the resulting solution was mixed at 1,000 rpm for 20 minutes to obtain a gel phase.
A fraction of the gel phase sample was transferred to a new stainless steel bucket. Using an overhead stirrer (EUROSTAR 200, IKA) equipped with a 4-bladed propeller stirrer, mixing was performed at 750 rpm for 1 minute. Next, to the mixture was added water, PCC slurry (previously contaminated for the study purpose), surfactant, and other ingredients (benzyl alcohol/caprylyl glycol or phenethyl alcohol/caprylyl glycol) and mixed for 15 minutes to obtain the final base.
Sample preparation was made by mixing 10 grams of the final base (see Example 1) with 90 mL of diluent (TAT broth (catalog #298410, BD) supplemented with 0.3% NaCl and 4% Tween) to achieve a 1:10 dilution. Serial dilutions of 10^−1 to 10^−6 were made in neutralizing broth (TAT supplemented with 0.3% NaCl), allowed to incubate for 0, 2, 4, 6, 24 and 48 hours, and plated in 15-20 mL of melted Modified Letheen Agar (MLA). Plates were swirled to allow complete dispersion and allowed to solidify. Solidified plates were then inverted and incubated at 30° C. for at least 48 hours. Colonies were counted using a Quebec colony counter (Phoenix Luferco, Brazil). Table 2 presents the study results, showing numbers of microorganisms per gram of product (CFU/) at different time points.

SMILES: CCCCCCC(O)CO (stereo not drawn) [Caprylyl glycol (0.20%), Caprylyl glycol]
- numbers of microorganisms per gram of product, 0 hr: 13,300 CFU/
- numbers of microorganisms per gram of product, 2 hr: 14,000 CFU/
- numbers of microorganisms per gram of product, 4 hr: 1,200 CFU/
- numbers of microorganisms per gram of product, 6 hr: 2,100 CFU/
- numbers of microorganisms per gram of product, 24 hr: 435 CFU/
- numbers of microorganisms per gram of product, 48 hr: 80 CFU/

SMILES: OCc1ccccc1 [Benzyl alcohol (0.30%), Benzyl alcohol]
- numbers of microorganisms per gram of product, 0 hr: 13,300 CFU/
- numbers of microorganisms per gram of product, 2 hr: 18,250 CFU/
- numbers of microorganisms per gram of product, 4 hr: 13,000 CFU/
- numbers of microorganisms per gram of product, 6 hr: 8,000 CFU/
- numbers of microorganisms per gram of product, 24 hr: 3,650 CFU/
- numbers of microorganisms per gram of product, 48 hr: 125 CFU/
